Assay results from patent publication US20230079819A1, “COMPOUNDS AND USES THEREOF” (Foghorn Therapeutics Inc., priority 2019, published 2023).
pIC50: −log10 of the molar value.

What was measured:
BRM = target: T1, BRM (Homo sapiens, UniProt P51531); experiment: ATPase catalytic activity of BRM, ADP-Glo in vitro biochemical assay; conditions: ATPase catalytic activity, 30 nM BRM, 400 μM ATP, read-out: BRM IP50
T1 construct: made in house; host or cells: High Five insect cells

BRG-1 = target: T2, BRG-1 (Homo sapiens, UniProt P51532); experiment: ATPase catalytic activity of BRG-1, ADP-Glo in vitro biochemical assay; conditions: ATPase catalytic activity, 30 nM BRG-1, 400 μM ATP, read-out: BRG1 IP50
T2 construct: made in house; host or cells: High Five insect cells
T2 sequence (P51532 whole entry): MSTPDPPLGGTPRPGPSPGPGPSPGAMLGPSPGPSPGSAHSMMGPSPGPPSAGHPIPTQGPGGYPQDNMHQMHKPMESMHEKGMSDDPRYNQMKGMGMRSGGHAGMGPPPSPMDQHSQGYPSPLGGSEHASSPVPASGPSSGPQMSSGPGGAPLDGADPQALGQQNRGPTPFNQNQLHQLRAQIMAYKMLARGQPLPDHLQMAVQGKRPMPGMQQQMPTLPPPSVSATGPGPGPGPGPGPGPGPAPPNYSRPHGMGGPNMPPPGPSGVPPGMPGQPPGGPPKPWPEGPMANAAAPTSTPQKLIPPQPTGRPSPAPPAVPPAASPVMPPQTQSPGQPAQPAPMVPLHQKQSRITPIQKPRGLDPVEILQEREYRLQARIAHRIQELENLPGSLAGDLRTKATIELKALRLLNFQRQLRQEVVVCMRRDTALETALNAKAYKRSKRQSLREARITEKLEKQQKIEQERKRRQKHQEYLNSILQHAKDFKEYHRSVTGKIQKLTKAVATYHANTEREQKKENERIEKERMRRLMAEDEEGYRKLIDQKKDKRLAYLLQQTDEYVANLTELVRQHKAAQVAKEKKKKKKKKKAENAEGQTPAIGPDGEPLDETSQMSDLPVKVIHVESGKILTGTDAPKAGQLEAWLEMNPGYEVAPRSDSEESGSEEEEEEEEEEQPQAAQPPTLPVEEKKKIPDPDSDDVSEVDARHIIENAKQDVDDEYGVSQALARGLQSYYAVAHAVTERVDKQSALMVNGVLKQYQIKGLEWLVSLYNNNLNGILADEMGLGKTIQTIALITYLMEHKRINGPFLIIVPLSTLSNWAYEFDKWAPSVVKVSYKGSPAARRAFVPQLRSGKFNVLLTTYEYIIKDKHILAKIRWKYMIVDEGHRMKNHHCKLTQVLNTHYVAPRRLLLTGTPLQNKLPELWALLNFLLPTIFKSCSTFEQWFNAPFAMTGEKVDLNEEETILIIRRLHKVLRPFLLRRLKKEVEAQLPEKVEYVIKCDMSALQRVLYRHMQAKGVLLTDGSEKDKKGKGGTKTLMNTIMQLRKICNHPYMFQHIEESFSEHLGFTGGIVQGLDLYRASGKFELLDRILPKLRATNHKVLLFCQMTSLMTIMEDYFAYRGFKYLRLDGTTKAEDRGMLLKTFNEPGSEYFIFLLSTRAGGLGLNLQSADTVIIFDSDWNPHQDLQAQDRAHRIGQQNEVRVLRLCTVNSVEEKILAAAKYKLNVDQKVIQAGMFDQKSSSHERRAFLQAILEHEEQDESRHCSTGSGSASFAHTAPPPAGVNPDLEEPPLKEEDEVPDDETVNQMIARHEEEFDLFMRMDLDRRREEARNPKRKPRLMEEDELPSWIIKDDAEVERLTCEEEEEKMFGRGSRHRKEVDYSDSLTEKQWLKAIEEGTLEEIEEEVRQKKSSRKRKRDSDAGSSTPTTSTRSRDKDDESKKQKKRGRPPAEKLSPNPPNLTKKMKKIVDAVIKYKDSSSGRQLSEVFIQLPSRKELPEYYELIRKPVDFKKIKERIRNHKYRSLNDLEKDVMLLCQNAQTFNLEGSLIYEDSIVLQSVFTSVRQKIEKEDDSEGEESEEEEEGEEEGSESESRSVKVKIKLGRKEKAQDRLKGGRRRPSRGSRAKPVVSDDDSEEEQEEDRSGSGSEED

T1 sequence (P51531 whole entry): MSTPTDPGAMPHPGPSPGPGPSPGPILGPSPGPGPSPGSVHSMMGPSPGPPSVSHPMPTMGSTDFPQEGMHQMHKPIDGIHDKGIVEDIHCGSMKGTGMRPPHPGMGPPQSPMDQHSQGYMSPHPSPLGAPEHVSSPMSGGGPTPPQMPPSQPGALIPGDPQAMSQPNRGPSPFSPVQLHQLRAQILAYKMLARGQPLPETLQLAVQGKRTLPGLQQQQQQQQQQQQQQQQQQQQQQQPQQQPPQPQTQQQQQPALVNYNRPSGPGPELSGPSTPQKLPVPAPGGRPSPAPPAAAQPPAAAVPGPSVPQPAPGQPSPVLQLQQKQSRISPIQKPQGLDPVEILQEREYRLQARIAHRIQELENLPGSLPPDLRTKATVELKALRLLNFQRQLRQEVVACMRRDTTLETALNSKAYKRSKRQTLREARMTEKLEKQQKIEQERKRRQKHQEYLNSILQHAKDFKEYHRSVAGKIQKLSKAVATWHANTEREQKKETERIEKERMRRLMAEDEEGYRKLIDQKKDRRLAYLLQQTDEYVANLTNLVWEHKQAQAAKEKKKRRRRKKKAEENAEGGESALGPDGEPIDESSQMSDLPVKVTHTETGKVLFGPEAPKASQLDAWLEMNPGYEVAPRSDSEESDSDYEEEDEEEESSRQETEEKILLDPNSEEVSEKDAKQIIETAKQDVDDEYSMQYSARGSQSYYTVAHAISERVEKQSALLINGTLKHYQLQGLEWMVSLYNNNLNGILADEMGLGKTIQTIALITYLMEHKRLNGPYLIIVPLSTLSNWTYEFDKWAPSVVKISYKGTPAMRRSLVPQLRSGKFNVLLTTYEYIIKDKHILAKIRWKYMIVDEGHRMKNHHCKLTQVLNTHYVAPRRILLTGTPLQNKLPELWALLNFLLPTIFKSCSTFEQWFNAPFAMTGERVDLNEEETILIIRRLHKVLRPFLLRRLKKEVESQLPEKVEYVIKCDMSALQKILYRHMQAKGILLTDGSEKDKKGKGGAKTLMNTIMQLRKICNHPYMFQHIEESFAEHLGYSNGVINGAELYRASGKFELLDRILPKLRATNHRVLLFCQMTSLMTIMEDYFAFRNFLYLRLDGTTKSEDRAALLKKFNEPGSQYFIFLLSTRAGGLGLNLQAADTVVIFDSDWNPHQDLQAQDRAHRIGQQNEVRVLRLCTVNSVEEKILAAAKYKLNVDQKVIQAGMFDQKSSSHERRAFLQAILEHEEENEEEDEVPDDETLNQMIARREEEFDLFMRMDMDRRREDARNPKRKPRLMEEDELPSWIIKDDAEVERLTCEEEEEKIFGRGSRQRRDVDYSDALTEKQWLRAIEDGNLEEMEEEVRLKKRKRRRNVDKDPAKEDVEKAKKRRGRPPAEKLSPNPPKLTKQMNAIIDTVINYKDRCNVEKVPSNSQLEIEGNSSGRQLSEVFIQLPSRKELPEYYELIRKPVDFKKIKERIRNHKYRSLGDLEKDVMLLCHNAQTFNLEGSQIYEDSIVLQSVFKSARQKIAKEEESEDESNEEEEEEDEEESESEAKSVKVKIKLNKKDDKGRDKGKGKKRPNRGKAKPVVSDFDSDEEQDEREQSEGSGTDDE

Structure (SMILES) | pIC50 (BRM) | pIC50 (BRG-1)
COC[C@H](NC(=O)c1ccn(C(C)(C)C)c1)C(=O)Nc1nc(-c2cc(F)c3ccn(C)c(=O)c3c2)cs1 [Compound 563] | > 8.00 | > 8.00
COC[C@H](NC(=O)c1ccn(C2(C)COC2)c1)C(=O)Nc1nc(-c2cc(F)c3ccn(C)c(=O)c3c2)cs1 [Compound 564] | > 8.00 | > 8.00
CN1CCc2c(F)ccc(-c3csc(NC(=O)CNC(=O)c4ccn(S(C)(=O)=O)c4)n3)c21 [Compound 565] | < 8.00 | < 8.00
COCC[C@H](NC(=O)c1ccn(C(C)(C)C)c1)C(=O)Nc1nc(-c2ccc3ccn(C)c(=O)c3c2)cs1 [Compound 567] | < 8.00 | < 8.00
COC[C@H](NC(=O)c1ccn(C2(C#N)CC2)c1)C(=O)Nc1nc(-c2cccc(-c3ccn(C)n3)c2)cs1 [Compound 568] | < 8.00 | < 8.00
CN1CCc2c(F)cc(-c3csc(NC(=O)CNC(=O)c4ccn(S(C)(=O)=O)c4)n3)cc21 [Compound 569] | > 8.00 | > 8.00
CC(C)(C#N)n1ccc(C(=O)NCC(=O)Nc2nc(-c3cc(F)c4c(c3)OCC4)cs2)c1 [Compound 571] | > 8.00 | < 8.00
COC[C@H](NC(=O)c1ccn(C2(C)COC2)c1)C(=O)Nc1nc(-c2cccc(-c3ccn(C)n3)c2)cs1 [Compound 572] | < 8.00 | < 8.00
COC[C@H](NC(=O)c1ccn(S(C)(=O)=O)c1)C(=O)Nc1nc(-c2cccc(N3CCC3)c2F)cs1 [Compound 573] | < 8.00 | < 8.00
CS(=O)(=O)n1ccc(C(=O)NCC(=O)Nc2nc(-c3ccc4c(c3)OCO4)cs2)c1 [Compound 574] | < 8.00 | < 8.00
CS(=O)(=O)n1ccc(C(=O)NCC(=O)Nc2nc(-c3cccc([C@@H]4CC4(F)F)c3)cs2)c1 [Compound 575] | < 8.00 | < 8.00
CS(=O)(=O)n1ccc(C(=O)NCC(=O)Nc2nc(-c3cccc([C@H]4CC4(F)F)c3)cs2)c1 [Compound 576] | > 8.00 | < 8.00
COC(=O)N1CCC[C@@H](c2csc(NC(=O)CNC(=O)c3ccn(S(C)(=O)=O)c3)n2)C1 [Compound 578] | < 8.00 | < 7.00
COC(=O)N1CCC[C@H](c2csc(NC(=O)CNC(=O)c3ccn(S(C)(=O)=O)c3)n2)C1 [Compound 579] | < 7.00 | < 7.00
COC(=O)N1CCC[C@@H](c2csc(NC(=O)CNC(=O)c3ccn(C(C)(C)C)c3)n2)C1 [Compound 580] | < 7.00 | < 7.00
COC(=O)N1CCC[C@H](c2csc(NC(=O)CNC(=O)c3ccn(C(C)(C)C)c3)n2)C1 [Compound 581] | < 7.00 | < 7.00
COC[C@H](NC(=O)c1ccn(C(C)(C)C)c1)C(=O)Nc1nc(-c2ccc3ccn(C(F)F)c(=O)c3c2)cs1 [Compound 583] | < 8.00 | < 8.00
COC[C@H](NC(=O)c1ccn(C(C)(C)C#N)c1)C(=O)Nc1nc(-c2ccc3ccn(C)c(=O)c3c2)cs1 [Compound 584] | > 8.00 | > 8.00
CS(=O)(=O)n1ccc(C(=O)NCC(=O)Nc2nc(-c3cccc(N4CC[C@H](C(F)F)C4)c3)cs2)c1 [Compound 585] | > 8.00 | < 8.00

Structure (SMILES) | pIC50 (BRM) | pIC50 (BRG-1)
CS(=O)(=O)n1ccc(C(=O)NCC(=O)Nc2nc(-c3cccc(N4CC[C@@H](C(F)F)C4)c3)cs2)c1 [Compound 586] | < 8.00 | < 8.00
C[C@H](NC(=O)c1ccn(C2(C#N)CC2)c1)C(=O)Nc1nc(-c2cccc(-c3ccn(C)n3)c2)cs1 [Compound 588] | < 8.00 | < 7.00
C[C@H](NC(=O)c1ccn(C2(C)COC2)c1)C(=O)Nc1nc(-c2cccc(-c3ccn(C)n3)c2)cs1 [Compound 589] | < 8.00 | < 7.00
CN1CCOc2ccc(-c3csc(NC(=O)CNC(=O)c4ccn(C(C)(C)C#N)c4)n3)cc21 [Compound 590] | < 8.00 | < 8.00
C[C@H](NC(=O)c1ccn(S(C)(=O)=O)c1)C(=O)Nc1nc(-c2cccc(-c3ccn(C)n3)c2)cs1 [Compound 591] | < 8.00 | < 8.00
COC[C@H](NC(=O)c1ccn(S(C)(=O)=O)c1)C(=O)Nc1nc(-c2ccc(F)c(OC(F)(F)F)c2)cs1 [Compound 592] | < 8.00 | < 8.00
COC[C@H](NC(=O)c1ccn(S(C)(=O)=O)c1)C(=O)Nc1nc(-c2cc(F)cc(OC(F)(F)F)c2)cs1 [Compound 593] | < 8.00 | < 8.00
N#CC1(n2ccc(C(=O)NCC(=O)Nc3nc(-c4cccc(N5CCC5)n4)cs3)c2)COC1 [Compound 595] | < 8.00 | < 8.00
COC[C@H](NC(=O)c1ccn(S(C)(=O)=O)c1)C(=O)Nc1nc(-c2ccc3c(c2)OCO3)cs1 [Compound 596] | > 8.00 | < 8.00
COC[C@H](NC(=O)c1ccn(S(C)(=O)=O)c1)C(=O)Nc1nc(-c2cccc([C@@H]3CC3(F)F)c2)cs1 [Compound 598] | < 8.00 | < 8.00
COC[C@H](NC(=O)c1ccn(S(C)(=O)=O)c1)C(=O)Nc1nc(-c2cccc([C@H]3CC3(F)F)c2)cs1 [Compound 599] | < 8.00 | < 8.00
C[C@@H]1CN(c2cccc(-c3csc(NC(=O)[C@H](C)NC(=O)c4ccn(C5(C#N)COC5)c4)n3)n2)C[C@H](C)O1 [Compound 600] | > 8.00 | > 8.00
N#CC1(n2ccc(C(=O)NCC(=O)Nc3nc(-c4cccc(N5CCC5)c4)cs3)c2)COC1 [Compound 601] | > 8.00 | < 8.00
C[C@@H]1CN(c2cccc(-c3csc(NC(=O)CNC(=O)c4ccn(C5(C#N)COC5)c4)n3)n2)C[C@H](C)O1 [Compound 602] | > 8.00 | > 8.00
COC[C@H](NC(=O)c1ccn(C(C)(C)C)c1)C(=O)Nc1nc(-c2ccc3ccn(C4COC4)c(=O)c3c2)cs1 [Compound 603] | > 8.00 | > 8.00
CCO[C@H](NC(=O)c1ccn(S(C)(=O)=O)c1)C(=O)Nc1nc(-c2cccc([C@H]3CC3(F)F)n2)cs1 [Compound 606] | < 8.00 | < 7.00
CS(=O)(=O)n1ccc(C(=O)NCC(=O)Nc2nc(-c3cc(Cl)c4c(c3)OCO4)cs2)c1 [Compound 607] | < 8.00 | < 8.00
CS(=O)(=O)n1ccc(C(=O)NCC(=O)Nc2nc(-c3cccc([C@@H]4CC4(F)F)n3)cs2)c1 [Compound 608] | < 8.00 | < 7.00
CS(=O)(=O)n1ccc(C(=O)NCC(=O)Nc2nc(-c3cccc([C@H]4CC4(F)F)n3)cs2)c1 [Compound 609] | < 8.00 | < 8.00

Structure (SMILES) | pIC50 (BRM) | pIC50 (BRG-1)
COC[C@H](NC(=O)c1ccn(S(C)(=O)=O)c1)C(=O)Nc1nc(-c2cc(F)cc(OC3CC3)c2)cs1 [Compound 610] | < 8.00 | < 8.00
COC[C@H](NC(=O)c1ccn(C(C)(C)C)c1)C(=O)Nc1nc(-c2cnc3ccn(C)c(=O)c3c2)cs1 [Compound 611] | < 8.00 | < 8.00
CS(=O)(=O)n1ccc(C(=O)NCC(=O)Nc2nc(-c3ccc(F)c(OC4CC4)c3F)cs2)c1 [Compound 612] | < 8.00 | < 8.00
COC[C@H](NC(=O)c1ccn(S(C)(=O)=O)c1)C(=O)Nc1nc(-c2ccc(F)c(OC3CC3)c2F)cs1 [Compound 613] | < 8.00 | < 7.00
CS(=O)(=O)n1ccc(C(=O)NCC(=O)Nc2nc(-c3ccc(F)c(OC4CC4)n3)cs2)c1 [Compound 614] | < 8.00 | < 8.00
COC[C@H](NC(=O)c1ccn(C(C)(C)C#N)c1)C(=O)Nc1nc(-c2cccc(-c3cnn(C)n3)c2)cs1 [Compound 615] | > 8.00 | > 8.00
CS(=O)(=O)n1ccc(C(=O)NCC(=O)Nc2nc(-c3cc(F)c4c(c3)OCO4)cs2)c1 [Compound 616] | > 8.00 | > 8.00
COC[C@H](NC(=O)c1ccn(S(C)(=O)=O)c1)C(=O)Nc1nc(-c2cc(Cl)c3c(c2)OCO3)cs1 [Compound 617] | < 8.00 | < 7.00
CC(C)(C)n1ccc(C(=O)NCC(=O)Nc2nc(-c3cccc(N4CCC(C(F)F)C4)n3)cs2)c1 (stereo not drawn) [Compound 618] | < 8.00 | < 8.00
CS(=O)(=O)n1ccc(C(=O)NCC(=O)Nc2nc(-c3ccc4c(c3)CCO4)cs2)c1 [Compound 619] | > 8.00 | < 8.00
CC(C)(C)n1ccc(C(=O)NCC(=O)Nc2nc(-c3cccc(N4CCC5(COC5)C4)n3)cs2)c1 [Compound 620] | < 8.00 | < 8.00
C[C@@H]1CN(c2cccc(-c3csc(NC(=O)CNC(=O)c4ccn([C@@]5(C)CC5(F)F)c4)n3)n2)C[C@H](C)O1 [Compound 621] | < 7.00 | < 7.00
C[C@@H]1CN(c2cccc(-c3csc(NC(=O)CNC(=O)c4ccn([C@]5(C)CC5(F)F)c4)n3)n2)C[C@H](C)O1 [Compound 622] | > 8.00 | < 8.00
CN(C)[C@H]1CCN(c2cccc(-c3csc(NC(=O)CNC(=O)c4ccn(C(C)(C)C)c4)n3)n2)C1 [Compound 623] | < 7.00 | < 7.00
CC(C)(C)n1ccc(C(=O)NCC(=O)Nc2nc(-c3cccc(N4CCC5(CCOCC5)C4)n3)cs2)c1 [Compound 624] | < 7.00 | < 7.00
CC1CN(c2cccc(-c3csc(NC(=O)CNC(=O)c4ccn(C(C)(C)C)c4)n3)n2)C1 [Compound 625] | < 7.00 | < 7.00
CC(C)(C)n1ccc(C(=O)NCC(=O)Nc2nc(-c3cccc(N4CCC5(CCOC5)CC4)n3)cs2)c1 [Compound 626] | < 7.00 | < 7.00
CC(C)(C)n1ccc(C(=O)NCC(=O)Nc2nc(-c3cccc(N4CCN(c5cccnn5)CC4)n3)cs2)c1 [Compound 627] | < 8.00 | < 7.00
CC(C)(C)n1ccc(C(=O)NCC(=O)Nc2nc(-c3cccc(N4CCC5(CC4)CC(F)C5)n3)cs2)c1 [Compound 628] | < 7.00 | < 7.00
